From US20100083405A1, “Method For Controlling Seed Germination In Non-Dormant Seeds And Use Thereof” (priority 2008, published 2010)

Columns and labels:
ABI5 [1] = assay: ABI5 mRNA and protein levels (Northern and Western blot) in WT seeds; format: in vivo, Arabidopsis
Description: Total RNA extraction was performed as described by Vicient and Delseny, 1999, Anal. Biochem., 268, 412-413. Northern blot hybridizations were by standard procedures; RNA immobilized on membranes was stained with methylene blue and used as a loading control (Sambrook et al., 1989, above). For ABI5, full length ORF DNA probe (SEQ ID NO: 1) were amplified from cDNA with 5′[…] (SEQ ID NO: 8) 5′ […] (SEQ ID NO: 9).
The mRNA and protein expression of ABI5 was characterized in WT (Columbia ecotype) seeds at different times after their imbibition.
Under normal conditions, ABI5 mRNA and protein levels decreased from peak levels in WT dry seeds (DS) to undetectable levels 24 h to 48 h after imbibition as shown respectively by Northern blot (2 μg of total RNA per lane) and Western blot analyses (10 μg of total protein per lane), where protein extracts were stained with red Ponceau prior to incubation with antibodies against ABI5 (Ponceau) (FIGS. 2A and 2B) (Lopez-Molina et al., 2001, above).

HA-ABI5 [2] = assay: HA-ABI5 mobility/phosphorylation (Western blot) in WT/35S::HA-ABI5 seeds; format: in vivo, Arabidopsis
Description: (§1) The methods used were as described in Lopez-Molina et al., 2001, above.
Thus, low GA levels also stimulate ABI5 activity and phosphorylation. […] An antibody to HA was used to reveal HA-ABI5 protein. λ phosphatase was inactivated by heat (65° C. for 20 min).

WT seed = assay: Germination assay, WT seeds; format: in vivo, Arabidopsis; conditions: low PAC concentrations (0.125 μM)
Text: (§2) Wild type (WT) Arabidopsis (Columbia ecotype) was used. The transgenic Arabidopsis line (Ler ecotype) constitutively overexpressing and accumulating ABI5 protein fused to hemagglutinin (HA) peptide tag (referred to as WT/35S::HA-ABI5 plants) was generated as described in Lopez-Molina et al., 2001, above. Transgenic Arabidopsis lines were generated using the Agrobacterium tumefaciens vacuum-infiltration method (Bechtold and Pelletier, 1998, Methods Mol. Biol. 82, 259-266). Seeds (T1) from infiltrated plants were plated in selection medium as described (Zuo et al., 2000, above; Lopez-Molina et al., 2001, above). Non-dormant seeds are used in absence of seed stratification procedure. The infiltration in the plant ovule is performed following the standard “Floral Dip” (Arabidopsis protocol Edited by J M Martinez-Zapater and Julio Salina. Humana Press, “In Planta Agrobacterium-Mediated Transformation of Adult Arabidopsis thaliana Plants by Vacuum infiltration”, Page 259).
(§3) When seeds are sown under “normal conditions” it refers to conditions where seeds are imbibed in a standard germination medium and provided with light (germination assay condition below). “ABA conditions” and “low GA conditions” are respectively conditions where ABA (e.g. 5 μM) and paclobutrazol (e.g. 5 μM, PAC), an inhibitor of GA synthesis, are added to the medium. […]

WT/35S::HA-ABI5 seeds [3] = assay: Germination assay, WT/35S::HA-ABI5 seeds; format: in vivo, Arabidopsis
Text: as §2, §3

[4] = test system: WT/35S::HA-ABI5 plants transformed with the ind::HA-PKABA1 DNA construct; assay: Germination assay, WT/35S::HA-ABI5 transformed with ind::HA-PKABA1; format: in vivo, Arabidopsis
Description: All seed batches compared in this study were harvested on the same day from plants grown side by side (i.e. identical environmental conditions). Dry siliques were obtained about 8 weeks after planting and left for a further 4 weeks at room temperature prior to seed harvesting. Seeds were then permanently stored at 4° C. Seeds obtained in this manner lacked dormancy. A minimum of three independently grown seed batches were used for measuring percent TR and ER. For TR and ER assays, seeds were surface sterilized as described in Lopez-Molina and Chua, 2000, above, and sown in plates with MS medium containing 0.8% (wt/vol.) Bacto-Agar (Applichem). Plates were incubated in a climate-controlled room (20-25° C., 16 h light/day, light intensity 80 ME/m^2/s, humidity 70%). Between 100 and 300 seeds were examined with a Stemi 2000 (Zeiss) stereomicroscope and photographed with a high-resolution digital camera (Canon Power G6, 7.1 Megapixels) at different times of seed imbibition. Photographs were enlarged electronically for measurement of TR and ER.
The first primer contains an XhoI site and the HA sequence (MYPYDVPDYASL (SEQ ID NO: 5) of SEQ ID NO:10), while the second contains a SpeI site. Both restriction sites were used for cloning into a plasmid pER8 (AN AF309825) such as described in Zuo et al., 2000, Plant J., 24, 265-273. […]

HA-PKABA1 = HA-PKABA1 protein levels (Western blot) in seeds transformed with ind::HA-PKABA1; format: in vivo, Arabidopsis; conditions: 50 μM 17β-estradiol, 48 h after seed imbibition, normal conditions
Text: The first primer contains an XhoI site and the HA sequence (MYPYDVPDYASL (SEQ ID NO: 5) of SEQ ID NO:10), while the second contains a SpeI site. Both restriction sites were used for cloning into a plasmid pER8 (AN AF309825) such as described in Zuo et al., 2000, Plant J., 24, 265-273. The resulting ind::HA-PKABA1 binary vector was then transformed into previously described WT/35S::HA-ABI5 line (Zuo et al., 2000, above; Lopez-Molina et al., 2001, above). As a negative control, WT plants were transformed with the same ind::HA-PKABA1 construct.

WT/35S::HA-ABI5 seeds [5] = conditions: low ABA concentration 0.5 μM; cited from earlier work
HA-ABI5 [6] = conditions: low ABA concentration 0.5 μM; cited from earlier work
HA-ABI5 [7] = assay: HA-ABI5 mobility/phosphorylation (Western blot) in WT/35S::HA-ABI5 lines transformed with ind::HA-PKABA1; format: in vivo, Arabidopsis; conditions: excess GA in the medium, inducer present
Description: as §1
The mobility differences of HA-ABI5 protein isolated from WT/35S::HA-ABI5 lines transformed with a ind::HA-PKABA1 DNA construct are analyzed by Western blot under the indicated germination conditions. As observed upon ABA treatment, induction of HA-PKABA1 protein triggered ABI5 phosphorylation, detected as a slower ABI5 protein mobility, which could be eliminated upon phosphatase treatment (FIG. 4B).

ABI5 [8] = assay: ABI5 protein levels (Western blot) in gal-3 seeds; format: in vivo, Arabidopsis; conditions: gal-3 seeds treated with GA, as early as 48 hours after imbibition
HA-ABI5, Q9SJN0 = target: T1, HA-ABI5, Q9SJN0
T1 chain: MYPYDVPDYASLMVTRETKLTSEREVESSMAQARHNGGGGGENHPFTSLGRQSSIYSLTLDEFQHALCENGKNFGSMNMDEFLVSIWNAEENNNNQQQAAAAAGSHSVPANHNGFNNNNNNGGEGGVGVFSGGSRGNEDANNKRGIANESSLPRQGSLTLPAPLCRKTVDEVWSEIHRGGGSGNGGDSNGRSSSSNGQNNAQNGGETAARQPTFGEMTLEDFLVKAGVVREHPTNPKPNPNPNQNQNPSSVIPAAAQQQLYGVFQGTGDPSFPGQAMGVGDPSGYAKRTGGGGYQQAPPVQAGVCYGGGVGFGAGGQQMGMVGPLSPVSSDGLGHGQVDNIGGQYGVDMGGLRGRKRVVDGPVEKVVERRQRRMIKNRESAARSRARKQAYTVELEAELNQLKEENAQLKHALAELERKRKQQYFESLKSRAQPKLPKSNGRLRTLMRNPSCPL

[9] = GA 50 μM added to the germination medium with ABA

## CC(C)(C)[C@@H](O)[C@@H](Cc1ccc(Cl)cc1)n1cncn1 (racemic) [PAC, paclobutrazol]
ABI5 [1]; 5 μM PAC, up to 96 hours after imbibition
  ABI5 expression (mRNA and protein): increased and maintained ABI5 expression
HA-ABI5 [2]; PAC 0.125 μM
  HA-ABI5 migration in SDS-PAGE gels: slower HA-ABI5 migration
WT seed
  WT seed germination: do not prevent WT seed germination
WT/35S::HA-ABI5 seeds [3]; after one week on 0.125 μM PAC
  seeds germinated: less than 20%

## C[C@]12CC[C@@H]3c4ccc(O)cc4CC[C@H]3[C@@H]1CC[C@@H]2O [17β-estradiol]
[4]; 24 h to 56 h upon transfer to medium without inducer (50 μM before)
  germination after removal of the inducer: 100%
HA-PKABA1
  HA-PKABA1 protein levels: could be detected only in presence of the inducer

## CC1=CC(=O)CC(C)(C)[C@@]1(O)/C=C/C(C)=C\C(=O)O [ABA, abscisic acid]
ABI5 [1]; ABA 5 μM, after imbibition
  ABI5 mRNA and protein expression: stimulated
WT/35S::HA-ABI5 seeds [5]
  germination response: hypersensitive responses
HA-ABI5 [6]
  HA-ABI5 phosphorylation: triggered HA-ABI5 phosphorylation

## gibberellins [GA]
HA-ABI5 [2]; [9]
  ABA-dependent ABI5 phosphorylation: did not alter ABA-dependent ABI5 phosphorylation
[4]; additional GA 50 μM in the medium, inducer present
  inducer-imposed germination arrest: did not counteract the inducer-imposed arrest
HA-ABI5 [7]
  HA-PKABA1-dependent phosphorylation of ABI5: did not prevent HA-PKABA1-dependent phosphorylation of ABI5
ABI5 [8]
  ABI5 protein: could not be detected
WT/35S::HA-ABI5 seeds [3]; [9]
  repression of seed germination imposed by ABA: did not overcome the repression of seed germination imposed by ABA

B1: HA-PKABA1 (protein)
chain: MYPYDVPDYASLMDRYEVVRDIGSGNFGVAKLVRDVRTREHFAVKFIERGHKIDEHVQREIMNHRSLKHPNIIRFKEVVLTPTHLAIVMEYASGGELFQRICNAGRFSEDEGRFFFQQLISGVSYCHSMQVCHRDLKLENTLLDGSVAPRLKICDFGYSKSSVLHSQPKSTVGTPAYIAPEVLSRREYDGKVADVWSCGVTLYVMLVGAYPFEDPDEPRNFRKTIARILSVQYSVPDYVRVSMDCIHLLSRIFVGNPQQRITIPEIKNHPWFLKRLPVEMTDEYQRGMQLADMNTPSQSLEEAMAIIQEAQKPGHNALGLAGQVACLGSMDLDDIDFDVDDIDIENSGDFVCPL
HA-ABI5, Q9SJN0
  ABI5 phosphorylation in planta, seen as slower HA-ABI5 mobility on Western blot (SDS-PAGE), sensitive to phosphatase: induction of HA-PKABA1 protein triggered ABI5 phosphorylation, detected as a slower ABI5 protein mobility, which could be eliminated upon phosphatase treatment
